From the Deep4Chem optical property database

Assay: solvent given as SMILES
Conditions: in CO

SMILES | emission maximum
Cc1cc(=O)oc2cc3c4ccccc4c4ccccc4c3cc12 | 420 nm
CCOC(=O)C1=CNC=C(C(=O)OCC)C1c1ccccc1 | 423 nm

Results, then the molecule that gave them:

emission maximum | SMILES
646 nm | N#CSC1=CC2=C(c3c(Cl)cccc3Cl)c3cc(SC#N)c(NCc4ccccc4)n3[B-](F)(F)[N+]2=C1NCc1ccccc1
474 nm | Oc1ccccc1-c1nc(-c2ccccc2)c2ccccn12
383.9 nm | CCC1(CC)c2cc(-c3ccc(-c4ccc5c(c4)C(CC)(CC)c4cc(C(C)(C)C)ccc4-5)cc3)ccc2-c2ccc(C(C)(C)C)cc21

Same assay, conditions: in CS(C)=O

SMILES | emission maximum
O=c1c2cc(S(=O)(=O)O)ccc2[nH]c2ccc(S(=O)(=O)O)cc12 | 417 nm
C[N+]1=C(/C=C/C=C2/N(CCC[N+](C)(C)C)c3ccccc3C2(C)C)C(C)(C)c2ccccc21 | 565 nm
CCOC(=O)CN1C(=O)C2=C(c3ccc(N4CCCCC4)cc3)N(CC(=O)OCC)C(=O)C2=C1c1ccc(N2CCCCC2)cc1 | 603 nm
CN(C)c1ccc(C#Cc2nc(-c3ccccc3)nc3ccccc23)cc1 | 584 nm
Fc1ccc(-c2nc3n(c2-c2ccncc2)CCS3)cc1 | 436 nm
Cc1cc(=O)oc2cc3c4ccccc4c4ccccc4c3cc12 | 418 nm

Same assay, conditions: in Cc1ccc(C)cc1

SMILES | emission maximum
Fc1ccc(-c2nc3n(c2-c2ccncc2)CCS3)cc1 | 411.5 nm

Same assay, conditions: in Cc1ccccc1

SMILES | emission maximum
CCOC(=O)CN1C(=O)C2=C(c3ccc(N4CCCCC4)cc3)N(CC(=O)OCC)C(=O)C2=C1c1ccc(N2CCCCC2)cc1 | 575 nm
CC1(C)c2ccccc2N(c2ccc(C(=O)c3cc(C(=O)c4ccc(N5c6ccccc6C(C)(C)c6ccccc65)cc4)cc(C(=O)c4ccc(N5c6ccccc6C(C)(C)c6ccccc65)cc4)c3)cc2)c2ccccc21 | 530 nm
CCCCC1(c2ccccc2)Nc2c(-c3ccc(N(c4ccccc4)c4ccccc4)cc3)ccc(-c3ccc(N(c4ccccc4)c4ccccc4)cc3)c2N=C1c1ccccc1 (stereo not given) | 533 nm
CN(C)c1ccc(-c2c(/C=C3/C=Cc4ccccc4N3C)c(=O)c2=O)cc1 | 435 nm
CCN(CC)c1ccc(/C=C/c2ccc(-c3ccc(/C=C/c4ccc(N(CC)CC)cc4)s3)s2)cc1 | 530 nm
Fc1ccc(-c2nc3n(c2-c2ccncc2)CCS3)cc1 | 412 nm
Cc1cc(=O)oc2cc3c4ccccc4c4ccccc4c3cc12 | 410 nm
CCCCCCc1ccc2c3c(ccc2c1)O[B-](F)(F)[N+](c1cc([N+]2=Cc4c(ccc5cc(CCCCCC)ccc45)O[B-]2(F)F)cc([N+]2=Cc4c(ccc5cc(CCCCCC)ccc45)O[B-]2(F)F)c1)=C3 | 493 nm

Same assay, conditions: in ClC(Cl)Cl

SMILES | emission maximum
CCN1C(=CC2=C([O-])C(=Cc3sc4ccccc4[n+]3CC)C2=O)Sc2ccccc21 | 687 nm
CC(=O)OCCN1C(=O)c2cccc3c(Oc4ccc(C#N)cc4)ccc(c23)C1=O | 410 nm
COc1ccc(-c2cc3c(o2)=CC2=C(C(F)(F)F)c4cc5oc(-c6ccc(OC)cc6)cc5n4[B-](F)(F)[N+]=32)cc1 | 738 nm
CCCCC1(c2ccccc2)Nc2c(-c3ccc(N(c4ccccc4)c4ccccc4)cc3)ccc(-c3ccc(N(c4ccccc4)c4ccccc4)cc3)c2N=C1c1ccccc1 (stereo not given) | 547 nm
Fc1ccc(-c2nc3n(c2-c2ccncc2)CCS3)cc1 | 413.5 nm
Cc1cc(=O)oc2cc3c4ccccc4c4ccccc4c3cc12 | 415 nm

Same assay, conditions: in ClCCl

SMILES | emission maximum
COc1cc2c(cc1OC)C1=C[C@H](c3ccc(C)cc3)C3(C(C#N)=C(C#N)N1CC2)c1cc(Br)ccc1-c1ccc(Br)cc13 | 405 nm
CN(C)c1ccc(-c2c(/C=C3/C=Cc4ccccc4N3C)c(=O)c2=O)cc1 | 588 nm
Fc1ccc(-c2nc3n(c2-c2ccncc2)CCS3)cc1 | 415 nm
COCCOCCOCN1C(=O)c2ccc3c(-c4ccccc4)c4c5ccc6c7c(ccc(c(-c8ccccc8)c4c4ccc(c2c34)C1=O)c75)C(=O)N(COCCOCCOC)C6=O | 695 nm
CCCCCCc1ccc2c3c(ccc2c1)O[B-](F)(F)[N+](c1cc([N+]2=Cc4c(ccc5cc(CCCCCC)ccc45)O[B-]2(F)F)cc([N+]2=Cc4c(ccc5cc(CCCCCC)ccc45)O[B-]2(F)F)c1)=C3 | 495 nm

Results, then the molecule that gave them:

emission maximum | SMILES
421 nm | COC(=O)c1ccc(Oc2ccc3c4c(cccc24)C(=O)N(c2c(C(C)C)cccc2C(C)C)C3=O)cc1
447 nm | CCn1c2cc(-c3ccc(-c4cccs4)s3)ccc2c2ccc(-c3ccc(-c4cccs4)s3)cc21
595 nm | CCCCCCOc1cc(N(CC)CC)ccc1/C=C/C(=C(C#N)C#N)c1ccc(N(c2ccccc2)c2ccccc2)cc1
475 nm | COC(=O)c1[nH]c(-c2ccc(Br)cc2)c2nnc3ccc(OC)cc3c12
551 nm | CN(C)c1ccc(C#Cc2nc(-c3ccccc3)nc3ccccc23)cc1
607 nm | N#CC(C#N)=Cc1ccc(-c2cccc(-c3nc4ccccc4s3)c2O)s1
454 nm | CC(C)(C)c1ccc2c(c1)c1cc(C(C)(C)C)ccc1n2-c1ccc(C#Cc2ccc3c4ccc(C#Cc5ccc(C=C(C#N)C#N)cc5)cc4n(-c4ccc(C(F)(F)F)cc4)c3c2)cc1
649 nm | CC(C)[Si](C#Cc1c2cc3ccccc3cc2c(C#C[Si](C)(C)C)c2cc3ccccc3cc12)(C(C)C)C(C)C
656 nm | N#CSC1=CC2=C(c3c(Cl)cccc3Cl)c3cc(SC#N)c(NCc4ccccc4)n3[B-](F)(F)[N+]2=C1NCc1ccccc1
484 nm | Oc1ccccc1-c1nc(-c2ccccc2)c2ccccn12

Same assay, conditions: in O

SMILES | emission maximum
O=c1c2cc(S(=O)(=O)O)ccc2[nH]c2ccc(S(=O)(=O)O)cc12 | 417 nm
CC[N+]1(CC)CN2C(=N1)C(C(=O)O)=Cc1cc(Cl)ccc12 | 472 nm
Fc1ccc(-c2nc3n(c2-c2ccncc2)CCS3)cc1 | 415 nm

Now from value to molecule:

emission maximum | SMILES
646 nm | N#CC(C#N)=Cc1ccc(-c2cccc(-c3nc4ccccc4s3)c2O)s1
481 nm | Oc1ccccc1-c1nc(-c2ccccc2)c2ccccn12

Same assay, conditions: in O=P(c1ccccc1)(c1ccccc1)c1ccccc1Oc1ccccc1P(=O)(c1ccccc1)c1ccccc1

SMILES | emission maximum
N#Cc1c(-c2ccc(N(c3ccccc3)c3ccccc3)cc2)c(C#N)c(-c2ccc(N(c3ccccc3)c3ccccc3)cc2)c(C#N)c1-c1ccc(N(c2ccccc2)c2ccccc2)cc1 | 533 nm

Same assay, conditions: in OCCO

SMILES | emission maximum
Fc1ccc(-c2nc3n(c2-c2ccncc2)CCS3)cc1 | 440.5 nm

Same assay, conditions: in c1ccc2c(c1)c1ccccc1n2-c1ccc(-c2ccc(-n3c4ccccc4c4ccccc43)cc2)cc1

SMILES | emission maximum
CC1(C)c2ccccc2N(c2ccc(C(=O)c3cc(C(=O)c4ccc(N5c6ccccc6C(C)(C)c6ccccc65)cc4)cc(C(=O)c4ccc(N5c6ccccc6C(C)(C)c6ccccc65)cc4)c3)cc2)c2ccccc21 | 521 nm

Same assay, conditions: in c1ccncc1

SMILES | emission maximum
Fc1ccc(-c2nc3n(c2-c2ccncc2)CCS3)cc1 | 434 nm
